Results from patent publication US4016193A, “Novel substituted phenylacetic acid derivatives and a process for preparing thereof” (Mitsubishi Yuka Pharmaceutical Co., Ltd., priority 1974, dated 1977).
Where two headings read alike, the source gives them in different places.

Experiments:
[1] = test system: carrageenin edema; experiment: Anti-inflammatory activity: inhibition of carrageenin edema of the rat paw, oral; format: in vivo, wistar male rats; conditions: read-out: inhibiting rate; for inhibition in vivo at 100 mg/kg: 100 mg/kg orally; for inhibition in vivo at 100 mg/kg / inhibition in vivo at 12.5 mg/kg / inhibition in vivo at 25 mg/kg / inhibition in vivo at 50 mg/kg: rats, 4 hours after carrageenin; for inhibition in vivo at 12.5 mg/kg: 12.5 mg/kg orally; for inhibition in vivo at 25 mg/kg: 25 mg/kg orally; for inhibition in vivo at 50 mg/kg: 50 mg/kg orally
Description: The anti-inflamatory activity is shown by inhibiting rate calculated from measurement of carrageenin edema intensity. Five wistar male rats having body weight of 120 - 180g are defined as one group and after fasted for 18 hours, the sample containing a 1% tragacanth solution such as is suspended so as to become 5 ml/kg was administered orally to the said group. Only the same volume of the 1% tragacanth solution was administered to the control group. After one hour, 0.05 ml of a 1% carrageenin (manufactured by Picnin-A, Pasco International Corp.) was injected subcutaneously to the plantar legion of right hind paw of rats. Before injection and after 4 hours of injection of carrageenin, the right hind paw volume was measured by means of paw volume measurement instrument manufactured by Ugo-Basile and an increase % of paw volume was calculated. The inhibiting rate was calculated from an increase ratio of the examined group against the central groups.

[2] = test system: writhing syndrome caused by acetic acid; experiment: Analgesic activity, acetic acid writhing method, oral; format: in vivo, dd origin male mice; conditions: for ED50: Mus musculus, po, read-out: ED50 (analgesic activity); for activity ratio: ratio of ED50 values, methyl 3-nitro-4-allyloxyphenylacetate defined as 1
Description: (b) The analgesic activity was measured by means of acetic and writhing
10dd origin male mice weighing 17 -
25g were used as one group after 18 hours of fasting. After oral
administration of the test compounds the frequencies of writhing syndrome
caused by intraperitoneal administration of 0.1 ml/10g of a 0.6% acetic
acid were measured for 20 minutes. The frequencies of writhing syndrome
which are below 50% of those of the control group were defined as
analgesic activity (+) and the ED50 values were calculated by means of
Litchfield-Wilcoxon method. The ED50 value of methyl
3-nitro-4-allyloxyphenylacetate is defined as 1 and the activity ratios of
the test compounds were expressed as ratio of ED50 values. The test
compounds were administered as a suspension such as are adjusted to be 0.1
ml/10g in a 1% tragacanth solution. A 1% tragacanth solution was
administered to the control group.

[3] = in vivo; conditions: rat, po, orally, rats
[4] = orally, mice, 0.6% acetic acid i.p., Litchfield-Wilcoxon method

SMILES | inhibition in vivo at 100 mg/kg [1] [%] | inhibition in vivo at 25 mg/kg [1] [%] | inhibition in vivo at 50 mg/kg [1] [%] | ED50 [2, 4] [mg/kg] | further results
C=CCOc1ccc(C(C)C(=O)O)cc1[N+](=O)[O-] (stereo not shown) [2-(3-nitro-4-allyloxyphenyl)propionic acid] | 40.1 | – | – | – | –
C=CCOc1ccc(CC(=O)O)cc1[N+](=O)[O-] [3-Nitro-4-allyloxyphenylacetic acid] | – | 24.3 | 66.6 | 96 | inhibition in vivo at 12.5 mg/kg [1]: 13.9%; activity ratio [2]: 0.32; LD50 ([3]; female): 1360 mg/kg; LD50 ([3]; male): 1480 mg/kg
C#CCOc1ccc(CC(=O)O)cc1[N+](=O)[O-] [3-Nitro-4-propargyloxyphenylacetic acid] | 40.3 | – | 28.8 | – | –
C=CCOc1ccc(CC(=O)O)cc1Cl [3-chloro-4-allyloxyphenylacetic acid] | 62 | 47 | 51.8 | 56.8 | –
C=CCOc1ccc(CC(N)=O)cc1[N+](=O)[O-] [3-nitro-4-allyloxyphenylacetamide] | 37.7 | – | – | – | –
Cc1c(N(C)C)c(=O)n(-c2ccccc2)n1C [Aminopyrine] | – | – | – | 80 | activity ratio [2]: 0.38
CC(=O)Oc1ccccc1C(=O)O [Aspirin] | – | – | – | – | ED50 [2]: 320 mg/kg; activity ratio [2]: 0.09
C=CCOc1ccc(C(C)C(=O)OCC)cc1[N+](=O)[O-] (stereo not shown) [Ethyl 2-(3-nitro-4-allyloxyphenyl)propionate] | 55.5 | – | – | – | –
COc1ccc2c(c1)c(CC(=O)O)c(C)n2C(=O)c1ccc(Cl)cc1 [Indomethacine] | – | – | – | – | inhibition in vivo at 1 mg/kg ([1]; 4 h): 39.8%; inhibition in vivo at 3 mg/kg ([1]; 4 h): 46%; inhibition in vivo at 9 mg/kg ([1]; 4 h): 60.4%
COc1cc(C)nc(-n2nc(C)cc2OC)n1 [Mepirizole] | 52.7 | 19.5 | 51.8 | 117 | activity ratio [2]: 0.26; LD50 ([3]; female): 971 mg/kg; LD50 ([3]; male): 1020 mg/kg
C=CCOc1ccc(C(C)C(=O)OC)cc1[N+](=O)[O-] (stereo not shown) [Methyl 2-(3-nitro-4-allyoxyphenyl)propionate] | 50.1 | – | – | – | –
C=CCOc1ccc(CC(=O)OC)cc1[N+](=O)[O-] [Methyl 3-nitro-4-allyloxyphenylacetate] | – | 72.1 | – | 31 | inhibition in vivo at 12.5 mg/kg [1]: 51.7%; LD50 ([3]; female): > 3000 mg/kg; LD50 ([3]; male): > 3000 mg/kg
C#CCOc1ccc(CC(=O)OC)cc1[N+](=O)[O-] [Methyl 3-nitro-4-propargyloxyphenylacetate] | 44.9 | – | – | – | –
CCCCC1C(=O)N(c2ccccc2)N(c2ccccc2)C1=O [Phenylbutazone] | – | 49.1 | 59.4 | – | inhibition in vivo at 12.5 mg/kg [1]: 14.1%
